In patent US6972319B1, “Pituitary adenylate cyclase activating peptide (PACAP)receptor 3 (R3) agonists and their pharmacological methods of use” (priority 1999, dated 2005):
Read-outs that look alike come from different tables or passages of the source. No end group written: not given here.

Key:
PACAP-R2 = target: T1, PACAP-R2 (Homo sapiens, UniProt P32241); test: Cyclic AMP SPA on CHO cells transfected with PACAP-R2; assay type: cell-based; conditions: concentration at which 50% of maximum PACAP27 activity is achieved, NA = no detectable activities
T1 construct: expressed in transfected cells; host or cells: CHO cells
T1 sequence (P32241 31-457): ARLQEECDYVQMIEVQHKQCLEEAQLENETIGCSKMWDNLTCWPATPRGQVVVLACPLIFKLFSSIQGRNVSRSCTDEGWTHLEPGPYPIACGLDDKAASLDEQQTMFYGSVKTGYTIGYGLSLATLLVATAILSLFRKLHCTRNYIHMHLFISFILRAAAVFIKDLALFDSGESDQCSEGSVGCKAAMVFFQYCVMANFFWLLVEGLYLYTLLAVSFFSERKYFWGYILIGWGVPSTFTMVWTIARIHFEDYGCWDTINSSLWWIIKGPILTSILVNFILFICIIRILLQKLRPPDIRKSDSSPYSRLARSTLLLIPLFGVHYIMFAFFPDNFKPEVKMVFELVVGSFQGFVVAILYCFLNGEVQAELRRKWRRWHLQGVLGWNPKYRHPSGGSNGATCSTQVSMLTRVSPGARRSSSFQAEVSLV
Method in brief: (§1)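 Receptor-transfected CHO cells are stimulated with peptide for 15 min at 37 C in the presence of phosphodiesterase inhibitor IBMX (100 uM), bacitracin and soybean trypsin inhibitor; cAMP is then read by scintillation proximity.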

[1] = Airway hyperresponsiveness in the primate acute asthma model; assay type: in vivo, cynomolgus monkeys (Macaca fascicularls); conditions: for Delta log10 PC100, Mean, Treated: aerosol 10 minutes before Ascaris suum antigen challenge, +24 hr minus baseline, R3P0 0.6, R3P76 3.0, R3P82 1.8 ug/kg; for % Inhibition of induced AHR: treated vs control, R3P0 0.6, R3P76 3.0, R3P82 1.8 ug/kg by inhalation
Description: Male cynomolgus monkeys (Macaca fascicularls) used in this study were maintained at constant temperature and humidity with a twelve hour light cycle. They were fed twice daily, except on an experimental day when food was withheld the night before the procedure. Water was available ad lib at all times.
Airway hyperresponsiveness (AHR)(baseline) was measured 1 week before the control (no treatment) antigen challenge, and again 24 hrs after antigen challenge. Antigen-induced airway hyperresponsiveness was measured by a fall in the PC100 (the concentration of methacholine required to cause a 100% increase in lung resistance) at 24 hr compared to baseline. After 2 weeks rest, another baseline measurement of AHR was performed. One week later, peptides of this invention were administered as an aerosol, 10 minutes before antigen challenge. After 24 hrs, AHR was again measured, and the fall in PC100 with treatment was compared to that without treatment.
Experimental Procedure. On each experimental day animals were anaesthetized with a ketamine/xylazine mixture (70:12 mg kg^−1 @ 0.1 ml kg^−1) while still in their cage. When unconscious they were brought into the primate laboratory where they were placed in a supine position on a heated water blanket on a trolley. Ophthalmic ointment was wiped onto each eye, and 0.2 ml lidocaine (2%,) sprayed onto the larynx and over the back of the throat. The Jaws were held apart by a jaw spreader and a cuffed 5.0 gauge endotracheal tube (with the end liberally smeared with xylocaine gel, 2%) was inserted with the aid of laryngoscope. The animal was then placed into a specially designed restraint chair such that the animal was in a slightly reclined but upright sitting position, secured only by a collar at the neck. A water-heated blanket surrounded the animal.
The endotracheal tube was connected to a Harvard Ventilator adjusted to deliver 30-35 breaths per minute. Airflow was measured by a Fleisch pneumotachograph and thoracic pressure was measured by a validyne pressure transducer (as the difference between the pressure at the distal end of the et tube and room pressure).
The pneumotachograph and validyne were connected to a pre-amplifier and then into an MI^2 respiratory analyser. […]
Antigen challenge: This was an inhalation challenge with Ascaris suum. […] 30 breaths of antigen were administered after which the acute bronchoconstriction was monitored for 15 min. […]
Methacholine challenge: Methacholine dose response curves were carried out to assess the airway hyperresponsiveness. In the acute model, this was measured at +24 hour and compared to the responsiveness 7 days before treatment. […] The aerosol was administered for 15 breaths and then lung resistance was monitored for ten minutes. […]

PACAP-R3 [2] = target: T2, PACAP-R3 (Homo sapiens, UniProt P41587); test: Cyclic AMP SPA on CHO cells expressing PACAP R3; assay type: cell-based; parameters: expressed in transfected cells; host or cells: CHO cells (Geneticin selection); conditions: for R3 Selectivity: ratio of EC50 at R2 versus EC50 at R3
T2 sequence (P41587 24-438): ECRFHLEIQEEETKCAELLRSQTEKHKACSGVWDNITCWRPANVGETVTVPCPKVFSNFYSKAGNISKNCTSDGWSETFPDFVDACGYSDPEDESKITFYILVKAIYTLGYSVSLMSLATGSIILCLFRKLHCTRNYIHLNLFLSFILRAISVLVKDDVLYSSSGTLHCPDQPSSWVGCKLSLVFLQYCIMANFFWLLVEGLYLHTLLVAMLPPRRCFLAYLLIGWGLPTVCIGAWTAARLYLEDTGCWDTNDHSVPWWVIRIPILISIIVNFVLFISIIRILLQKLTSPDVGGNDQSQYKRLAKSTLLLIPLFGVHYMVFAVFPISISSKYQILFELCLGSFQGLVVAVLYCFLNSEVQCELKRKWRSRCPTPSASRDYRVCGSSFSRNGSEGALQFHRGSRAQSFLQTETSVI
Method in brief: as §1

[3] = Peptide-induced elevation of plasma insulin after IVGTT in rats; assay type: in vivo; conditions: one minute after IVGTT (0.4 g/kg glucose), 1 nmole/kg peptide i.v., Wistar rats
Description: Wistar rats are fasted overnight (17 hrs) and then anesthetized with pentobarbital (0.1 ml/100 g BW). Glucose (0.4 g/kg dissolved in 1% human albumin-saline)+/−peptide (dissolved in 1% human albumin-saline) is injected intravenously into the tail vein. The rats are eye-bled 1 minute after the injection and 50-100 ul of the plasma are assayed for insulin level with the Linco RIA kit (Linco Research, Inc., St. Charles, Mo.).
In accordance with the protocol of example 2 above, overnight fasted Wistar rats were anesthetized with pentobarital; i.v. injected with glucose±peptide and eye bled after 1 minute. N=12 rats/group. […] The peptide or vehicle was given i.v. followed by a glucose load given i.p. in accordance with example 3. The plasma glucose was followed over the time period indicated.
Plasma insulin: Data are expressed as % of plasma insulin one minute after IVGTT (0.4 g/kg glucose) with either saline, 0.1 nmol/kg P51, P55, P60, P66 or 1 nmole/kg of the other peptides in Wistar rats. Blood was drawn from the eye and insulin was measured with the rat insulin RIA kit (Linco Research, Inc., St. Charles, Mo.).

[4] = Intraperitoneal glucose tolerance test (IPGTT), plasma glucose in rats; assay type: in vivo, Wistar rats
Description: Wistar rats are fasted overnight and then anesthetized with pentobarbital. The rats were eye-bled (zero time) and the peptide (in 1% human albumin) was injected into the tail vein. Five minutes later, 1 g/kg of glucose (in saline) was injected intraperitoneally, and the rats were eye-bled after 15, 30 and 60 minutes. Plasma glucose levels were determined using the Technicon Axon autoanalyzer, Bayer Diagnosics division of Bayer Corporation, Tarrytown N.Y., operated using Method No. SM4-2143F90“Glucose”.
Wistar rats were fasted overnight and then anesthetized with Pentobarbital. The rats were eye-bled (zero time) and the peptide (in 1% human albumin) was injected subcutaneously. Five minutes later, 1 g/kg of glucose (in saline) was injected intraperitoneally, and the rats were eye-bled after 30 minutes.
Plasma glucose: Data are expressed as % of vehicle of plasma glucose area under the curve after IPGTT (1 g/kg glucose) after treatment with 1 nmol/kg dose of the peptide. […] The present inventors have shown for the first time that this is because the effects of R2 and R3 on glucose tend to cancel each other out. […] Therefore, R3-selectivity appears to be a desirable attribute for medicaments which are to be employed in achieving blood glucose reduction, for treatment of type 2 diabetes.

rat islets = test: Insulin secretion by isolated rat islets; assay type: cell-based, Sprague-Dawley rats
Description: Sprague Dawley rats (275-320 g) were used as the source of donor islets. Briefly, the pancreas was filled with 10 ml of cold reconstituted Liberase RI (Boehringer Manheim), harvested and incubated with additional 5 ml enzyme solution in water bath for 30 minutes. Tissue suspension was washed twice with cold 10% FBS/Hanks buffer (Gibco), resuspended in 8 ml 25% ficoll (Sigma) and then layered with 5 ml each of 23%, 20% and 11% ficoll. The islets in the 20% layer after centrifugation were removed, washed twice with cold 10% FBS/Hank buffer and resuspended in 10% FBS/RPMI 1640 media (Sigma).
Islet insulin release: Rat islets were isolated from Sprague-Dawley rats as described in example 1 and treated with either vehicle or specified peptide (10 nM) for 2 hrs. Insulin concentration in the medium was measured with the Linco rat insulin RIA kit. Glucose concentration in the medium was 8 mM. The data are expressed as % of [insulin] in 8 mM glucose alone.

PACAP-R3 [5] = target: T2, PACAP-R3; conditions: literature (Gourlet et al., Xia et al.); b170: over R1 and R2; cited from earlier work

Question: What does the source list for CC[C@H](C)[C@H](NC(=O)[C@@H](NC(=O)[C@H](CC(N)=O)NC(=O)[C@H](CC(C)C)NC(=O)[C@H](Cc1ccc(O)cc1)NC(=O)[C@H](Cc1c[nH]cn1)NC(=O)[C@H](CCCCN)NC(=O)[C@H](C)NC(=O)[C@H](C)NC(=O)[C@H](CC(C)C)NC(=O)[C@H](CCC(N)=O)NC(=O)[C@H](CCCCN)NC(=O)[C@H](CCCNC(=N)N)NC(=O)[C@H](CC(C)C)NC(=O)[C@H](CCCNC(=N)N)NC(=O)[C@@H](NC(=O)[C@H](Cc1ccc(O)cc1)NC(=O)[C@H](CCC(N)=O)NC(=O)[C@H](CC(=O)O)NC(=O)[C@@H](NC(=O)[C@H](Cc1ccccc1)NC(=O)[C@@H](NC(=O)[C@H](C)NC(=O)[C@H](CC(=O)O)NC(=O)[C@H](CO)NC(=O)[C@@H](N)Cc1c[nH]cn1)C(C)C)[C@@H](C)O)[C@@H](C)O)[C@@H](C)O)C(=O)N[C@@H](CCCCN)C(=O)N[C@@H](CC(N)=O)C(=O)N[C@@H](CCCCN)C(=O)N[C@@H](CCCNC(=N)N)C(=O)N[C@@H](Cc1ccc(O)cc1)C(=O)O [Peptide R3P76]?
Answer: EC50 (PACAP-R2; cAMP SPA, read-out: R2 EC50): > 150 nM; Delta log10 PC100, Mean, Treated [1]: +0.047; % Inhibition of induced AHR [1]: 100%

Question: With “HSDAVFTDNYTRLRKQVAVKKYLQSIKNKRY [Peptide R3P82]” as the compound, how does the EC50 (PACAP-R2; cAMP SPA, read-out: R2 EC50) read?
Answer: Its EC50 is 10 nM.

Question: And the “Delta log10 PC100, Mean, Treated” value [1]?
Answer: Its value is −0.067.

Question: What about the “% Inhibition of induced AHR” value [1] of the same compound?
Answer: The value was 88%.

Question: What about the EC50 (PACAP-R3 [2]; cAMP SPA, CHO cells transfected with PACAP-R3, concentration at which 50% of maximum PACAP27 activity is achieved, NA = no detectable activities, read-out: R3 EC50) of the same compound?
Answer: The EC50 was 0.4 nM.

Question: And the “R3 Selectivity” value (PACAP-R3 [2])?
Answer: Its value is 23.

Question: What does the source list for “HSDAVFTENYTKLRKQLAAKKYLNDLKKGGT [Peptide R3P3]”?
Answer: Plasma Insulin (% of Basal) [3]: 361%; EC50 (PACAP-R2; R2 EC50, cAMP SPA): 100 nM; elevation of plasma glucose 30 minutes after IPGTT ([4]; 1 nmole/kg s.c., rats, FIG. 7): significantly reduced; disposal of blood glucose ([4]; peptide i.v. followed by glucose load i.p., FIG. 5): markedly accelerated the disposal of blood glucose; Plasma Glucose (% of Basal) s.c. ([4]; plasma glucose after IPGTT (1 g/kg glucose), 1 nmol/kg peptide s.c., % of vehicle): 72%; Plasma Glucose (% of Basal) i.v. ([4]; plasma glucose area under the curve after IPGTT (1 g/kg glucose), 1 nmol/kg peptide i.v., % of vehicle): 77%; Islet Insulin Release (% of Basal) (rat islets; 10 nM peptide, 2 hrs, 8 mM glucose, % of [insulin] in 8 mM glucose alone): 275%; release of insulin from isolated rat islets (rat islets; 0.1-100 nM, 3 or 8 mM glucose, FIGS. 4A-4B): significantly enhances the release of insulin; EC50 (PACAP-R3 [2]): 0.75 nM; R3 Selectivity (PACAP-R3 [2]): 130

Question: Which PACAP-R3 selectivity (PACAP-R3 [5]) does the source give for Helodermin here?
Answer: Its PACAP-R3 selectivity is ~100 fold.
